Reference: US9567302B2, “Carbamate compounds and of making and using same” (Abide Therapeutics, Inc., priority 2012, dated 2017)

Columns and labels:
Type in all cases: biochemical
Set-up in all cases: from tissue
[1] = biological target: T1, MAGL (Mus musculus, UniProt O35678); assay: In vitro competitive ABPP, % inhibition at fixed concentration, MAGL
T1 sequence (O35678 1-303): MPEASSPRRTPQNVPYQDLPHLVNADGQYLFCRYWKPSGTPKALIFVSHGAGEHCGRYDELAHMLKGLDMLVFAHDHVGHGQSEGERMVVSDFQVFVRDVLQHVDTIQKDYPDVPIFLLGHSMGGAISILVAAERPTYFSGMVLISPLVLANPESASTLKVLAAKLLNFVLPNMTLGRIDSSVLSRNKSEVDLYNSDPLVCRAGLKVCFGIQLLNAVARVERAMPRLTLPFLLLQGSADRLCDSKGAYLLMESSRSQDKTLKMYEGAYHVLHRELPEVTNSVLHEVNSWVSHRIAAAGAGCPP
Summary of the method: (§1)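 Mouse brain membrane proteome or cell lysate at 1.0 mg/ml was preincubated with inhibitor for 30 min at 37° C, then labelled with FP-Rh for another 30 min. After SDS-PAGE, activity was quantified from the fluorescent intensity of the MAGL, ABHD6 and FAAH bands.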

[2] = biological target: T2, ABHD6 (Mus musculus, UniProt Q8R2Y0); assay: In vitro competitive ABPP, % inhibition at fixed concentration, ABHD6
T2 sequence (Q8R2Y0 1-336): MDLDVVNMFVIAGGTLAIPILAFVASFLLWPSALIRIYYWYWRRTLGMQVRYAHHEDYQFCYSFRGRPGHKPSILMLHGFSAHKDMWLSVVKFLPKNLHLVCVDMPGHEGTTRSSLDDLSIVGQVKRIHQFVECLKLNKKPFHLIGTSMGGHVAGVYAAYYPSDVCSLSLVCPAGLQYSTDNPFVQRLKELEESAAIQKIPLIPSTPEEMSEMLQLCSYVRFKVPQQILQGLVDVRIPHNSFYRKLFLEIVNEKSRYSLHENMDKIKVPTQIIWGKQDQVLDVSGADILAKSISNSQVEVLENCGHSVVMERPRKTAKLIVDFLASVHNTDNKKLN
Summary of the method: as §1

[3] = biological target: T3, FAAH (Mus musculus, UniProt O08914); assay: In vitro competitive ABPP, % inhibition at fixed concentration, FAAH
T3 sequence (O08914 1-579): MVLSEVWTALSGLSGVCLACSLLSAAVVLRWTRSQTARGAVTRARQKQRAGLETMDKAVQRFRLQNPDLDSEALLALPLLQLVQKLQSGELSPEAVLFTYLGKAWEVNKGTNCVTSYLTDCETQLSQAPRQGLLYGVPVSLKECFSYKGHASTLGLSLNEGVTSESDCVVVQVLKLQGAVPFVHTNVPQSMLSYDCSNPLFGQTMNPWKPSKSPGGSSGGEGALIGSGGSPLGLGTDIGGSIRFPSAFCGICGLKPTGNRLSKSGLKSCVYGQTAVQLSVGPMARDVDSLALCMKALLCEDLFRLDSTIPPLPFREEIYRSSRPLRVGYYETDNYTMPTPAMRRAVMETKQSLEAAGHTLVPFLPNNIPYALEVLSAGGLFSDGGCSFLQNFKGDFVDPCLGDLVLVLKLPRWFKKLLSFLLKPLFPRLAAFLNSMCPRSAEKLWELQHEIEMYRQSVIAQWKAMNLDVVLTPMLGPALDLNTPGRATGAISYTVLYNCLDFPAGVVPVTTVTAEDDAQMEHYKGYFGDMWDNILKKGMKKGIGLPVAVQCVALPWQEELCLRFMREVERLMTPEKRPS
Summary of the method: as §1

Structure (SMILES) | inhibition at 1 µM [1] | inhibition at 1 µM [2] | inhibition at 1 µM [3]
Cc1cccc(-c2ccc(CN3CCN(C(=O)ON4C(=O)CCC4=O)CC3)c(C)c2)n1 [Example 173, 2,5-Dioxopyrrolidin-1-yl 4-{[2-methyl-4-(6-methylpyridin-2-yl)phenyl]methyl}piperazine-1-carboxylate] | 25 to 75% | 25 to 75% | < 25%
Cc1ncccc1-c1ccc(CN2CCN(C(=O)ON3C(=O)CCC3=O)CC2)c(F)c1 [Example 174, 2,5-Dioxopyrrolidin-1-yl 4-{[2-fluoro-4-(2-methylpyridin-3-yl)phenyl]methyl}piperazine-1-carboxylate] | 25 to 75% | 25 to 75% | < 25%
Cc1cccc(-c2ccc(CN3CCN(C(=O)ON4C(=O)CCC4=O)CC3)c(F)c2)n1 [Example 175, 2,5-Dioxopyrrolidin-1-yl 4-{[2-fluoro-4-(6-methylpyridin-2-yl)phenyl]methyl}piperazine-1-carboxylate] | 25 to 75% | 25 to 75% | < 25%
Cc1cc(-c2ccc(CN3CCN(C(=O)ON4C(=O)CCC4=O)CC3)c(F)c2)cc(C)n1 [Example 176, 2,5-Dioxopyrrolidin-1-yl 4-{[4-(2,6-dimethylpyridin-4-yl)-2-fluorophenyl]methyl}piperazine-1-carboxylate] | 25 to 75% | 25 to 75% | < 25%
Cc1cnccc1-c1ccc(CN2CCN(C(=O)ON3C(=O)CCC3=O)CC2)c(F)c1 [Example 177, 2,5-Dioxopyrrolidin-1-yl 4-{[2-fluoro-4-(3-methylpyridin-4-yl)phenyl]methyl}piperazine-1-carboxylate] | 25 to 75% | > 75% | < 25%
Cc1nc(CN2CCN(C(=O)ON3C(=O)CCC3=O)CC2)ccc1-c1ccccc1F [Example 178, 2,5-Dioxopyrrolidin-1-yl 4-{[5-(2-fluorophenyl)-6-methylpyridin-2-yl]methyl}piperazine-1-carboxylate] | 25 to 75% | 25 to 75% | < 25%
Cc1ccccc1-c1ccc(CN2CCN(C(=O)ON3C(=O)CCC3=O)CC2)nc1C [Example 179, 2,5-Dioxopyrrolidin-1-yl 4-{[6-methyl-5-(2-methylphenyl)pyridin-2-yl]methyl}piperazine-1-carboxylate] | 25 to 75% | 25 to 75% | < 25%
Cc1cccc(-c2ccc(CN3CCN(C(=O)ON4C(=O)CCC4=O)CC3)nc2C)c1 [Example 180, 2,5-Dioxopyrrolidin-1-yl 4-{[6-methyl-5-(3-methylphenyl)pyridin-2-yl]methyl}piperazine-1-carboxylate] | > 75% | > 75% | < 25%
Cc1nc(CN2CCN(C(=O)ON3C(=O)CCC3=O)CC2)ccc1-c1cccc(F)c1 [Example 181, 2,5-Dioxopyrrolidin-1-yl 4-{[5-(3-fluorophenyl)-6-methylpyridin-2-yl]methyl}piperazine-1-carboxylate] | 25 to 75% | < 25% | < 25%
Cc1ccccc1-c1ccc(CN2CCN(C(=O)ON3C(=O)CCC3=O)CC2)c(C)n1 [Example 182, 2,5-Dioxopyrrolidin-1-yl 4-{[2-methyl-6-(2-methylphenyl)pyridin-3-yl]methyl}piperazine-1-carboxylate] | 25 to 75% | > 75% | < 25%
Cc1nc(-c2ccccc2F)ccc1CN1CCN(C(=O)ON2C(=O)CCC2=O)CC1 [Example 183, 2,5-Dioxopyrrolidin-1-yl 4-{[6-(2-fluorophenyl)-2-methylpyridin-3-yl]methyl}piperazine-1-carboxylate] | 25 to 75% | > 75% | < 25%
Cc1cccc(-c2ccc(CN3CCN(C(=O)ON4C(=O)CCC4=O)CC3)c(C)n2)c1 [Example 184, 2,5-Dioxopyrrolidin-1-yl 4-{[2-methyl-6-(3-methylphenyl)pyridin-3-yl]methyl}piperazine-1-carboxylate] | > 75% | 25 to 75% | < 25%
Cc1nc(-c2cccc(F)c2)ccc1CN1CCN(C(=O)ON2C(=O)CCC2=O)CC1 [Example 185, 2,5-Dioxopyrrolidin-1-yl 4-{[6-(3-fluorophenyl)-2-methylpyridin-3-yl]methyl}piperazine-1-carboxylate] | > 75% | > 75% | < 25%
CC(C)c1cc(N2CCCC2)ccc1CN1CCN(C(=O)ON2C(=O)CCC2=O)CC1 [Example 186, 2,5-Dioxopyrrolidin-1-yl 4-{[2-(propan-2-yl)-4-(pyrrolidin-1-yl)phenyl]methyl}piperazine-1-carboxylate] | 25 to 75% | 25 to 75% | < 25%
CC(C)c1cc(N2CCOCC2)ccc1CN1CCN(C(=O)ON2C(=O)CCC2=O)CC1 [Example 187, 2,5-Dioxopyrrolidin-1-yl 4-{[4-(morpholin-4-yl)-2-(propan-2-yl)phenyl]methyl}piperazine-1-carboxylate] | 25 to 75% | 25 to 75% | < 25%
O=C(ON1C(=O)CCC1=O)N1CCN(Cc2cccc(Cl)c2C(=O)N2CCCC2)CC1 [Example 190, 2,5-Dioxopyrrolidin-1-yl 4-{[3-chloro-2-(pyrrolidine-1-carbonyl)phenyl]methyl}piperazine-1-carboxylate] | 25 to 75% | < 25% | < 25%
O=C(ON1C(=O)CCC1=O)N1CCN(Cc2ccc(C(=O)N3CCOCC3)cc2Cl)CC1 [Example 192, 2,5-dioxopyrrolidin-1-yl 4-{[2-chloro-4-(morpholine-4-carbonyl)phenyl]methyl}piperazine-1-carboxylate] | 25 to 75% | 25 to 75% | < 25%
O=C(ON1C(=O)CCC1=O)N1CCN(Cc2ccc(C(=O)N3CCCC3)cc2Cl)CC1 [Example 193, 2,5-Dioxopyrrolidin-1-yl 4-{[2-chloro-4-(pyrrolidine-1-carbonyl)phenyl]methyl}piperazine-1-carboxylate] | 25 to 75% | 25 to 75% | < 25%
O=C(ON1C(=O)CCC1=O)N1CCN(Cc2ccc(C(=O)N3CCC3)cc2Cl)CC1 [Example 194, 2,5-Dioxopyrrolidin-1-yl 4-{[4-(azetidine-1-carbonyl)-2-chlorophenyl]methyl}piperazine-1-carboxylate] | 25 to 75% | 25 to 75% | < 25%
O=C(ON1C(=O)CCC1=O)N1CCN(Cc2ccc(Cl)cc2C(=O)N2CCOCC2)CC1 [Example 195, 2,5-Dioxopyrrolidin-1-yl 4-{[4-chloro-2-(morpholine-4-carbonyl)phenyl]methyl}piperazine-1-carboxylate] | < 25% | < 25% | < 25%
O=C(ON1C(=O)CCC1=O)N1CCN(Cc2ccc(Cl)cc2C(=O)N2CCCC2)CC1 [Example 196, 2,5-Dioxopyrrolidin-1-yl 4-{[4-chloro-2-(pyrrolidine-1-carbonyl)phenyl]methyl}piperazine-1-carboxylate] | 25 to 75% | < 25% | < 25%
O=C(ON1C(=O)CCC1=O)N1CCN(Cc2ccc(Cl)cc2C(=O)N2CCC2)CC1 [Example 197, 2,5-Dioxopyrrolidin-1-yl 4-{[2-(azetidine-1-carbonyl)-4-chlorophenyl]methyl}piperazine-1-carboxylate] | < 25% | < 25% | < 25%
O=C(ON1C(=O)CCC1=O)N1CCN(Cc2cccc(Cl)c2C(=O)N2CCOCC2)CC1 [Example 198, 2,5-Dioxopyrrolidin-1-yl 4-{[3-chloro-2-(morpholine-4-carbonyl)phenyl]methyl}piperazine-1-carboxylate] | < 25% | < 25% | < 25%
